Measured values from US11921105B2, “Method for identifying positive allosteric modulators for odorant receptors” (FIRMENICH SA, priority 2017, dated 2024).

Key:
Assay type in all cases: cell-based
OR10J5 [1] = biological target: T1, OR10J5 (Homo sapiens, UniProt Q8NHC4, R233W); assay: OR10J5 (+−)-2,5-dimethyl-2-indanmethanol dose-response with test compound
T1 construct: Lucy (cleavable leucine-rich signal peptide) (N); FLAG (N); Rho (first 20 aa of bovine rhodopsin) (N); expressed in transfected cells
T1 sequence (Q8NHC4 1-309 R233W): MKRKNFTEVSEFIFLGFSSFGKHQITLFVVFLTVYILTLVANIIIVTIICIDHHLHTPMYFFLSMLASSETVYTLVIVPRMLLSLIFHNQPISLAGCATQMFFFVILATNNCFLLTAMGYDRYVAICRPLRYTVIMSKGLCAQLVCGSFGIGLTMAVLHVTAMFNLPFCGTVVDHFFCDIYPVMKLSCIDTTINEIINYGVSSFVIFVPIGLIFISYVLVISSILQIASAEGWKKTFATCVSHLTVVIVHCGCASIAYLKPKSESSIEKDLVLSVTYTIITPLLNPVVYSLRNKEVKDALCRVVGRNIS
Experimental: OR10J5 activity enhancement was tested with an additional agonist and with one of the test compounds and conditions described in the Examples above. Dose response curves to (+−)-2,5-dimethyl-2-indanmethanol was obtained in the presence of a steady concentration of the test compound and compared to a dose-response curve of the agonist alone. The resulting enhancement was quantified by means of EC50-fold shift (potency increase) and the efficacy span ratio (efficacy increase) as described above.

OR10J5 [2] = biological target: T1, OR10J5; assay: OR10J5 LYRAL® dose-response at serial enhancer concentrations, allosteric EC50 shift model; settings: LYRAL®, enhancer 0 to 600 μM; for Kb: read-out: KB (equilibrium dissociation constant of the enhancer)
Experimental: Functional dose-response experiments were performed to reveal the allosteric nature of the interaction between heliopropanal, 3-(4-methylcyclohex-3-en-1-yl)butanal, melonal and heptanal and OR10J5. The level of enhancement of OR10J5's activation was evaluated at distinct concentrations of each enhancer. Using the same cell-based assay described earlier, dose response curves of OR10J5 to LYRAL® in the presence of serial concentrations of the enhancers spanning from 0 to 600 μM were performed, see FIG. 19. The curves were obtained by applying the simplified Allosteric EC50 shift effect equation (available in Prism7) derived from the ternary complex interaction model. The enhancement levels recorded were not linearly dependent on the concentration of the enhancer, and the following key parameters values for α (the cooperativity factor) and KB (the equilibrium dissociation constant of the enhancer) were obtained from the model for each enhancer: heliopropanal, α=6.3 and KB=10 μM; 3-(4-methylcyclohex-3-en-1-yl)butanal, α=7.5 and KB=15 μM; melonal, α=4.1 and KB=16 μM; and heptanal; α=3.2 and KB=51 μM. α>1 is indicative of positive allosteric modulation.

OR5AN1 = biological target: T2, OR5AN1 (Homo sapiens, UniProt Q8NGI8); assay: OR5AN1 MUSCENONE® dose-response at serial enhancer concentrations, allosteric EC50 shift model; settings: enhancer 0 to 1 mM
T2 construct: FLAG (N); Rho (first 20 aa of bovine rhodopsin) (N); expressed in transfected cells
T2 sequence (Q8NGI8 1-311): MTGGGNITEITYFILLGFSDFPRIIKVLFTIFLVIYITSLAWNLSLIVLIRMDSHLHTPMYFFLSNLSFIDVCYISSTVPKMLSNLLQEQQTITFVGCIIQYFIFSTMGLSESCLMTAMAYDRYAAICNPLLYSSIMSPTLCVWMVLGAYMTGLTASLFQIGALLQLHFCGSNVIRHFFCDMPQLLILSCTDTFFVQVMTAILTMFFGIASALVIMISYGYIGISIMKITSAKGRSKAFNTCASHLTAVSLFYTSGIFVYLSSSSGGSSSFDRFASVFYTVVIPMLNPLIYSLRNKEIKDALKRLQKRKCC
Experimental: The level of enhancement of OR5AN1's activation was evaluated at distinct concentrations of the enhancer. […] The curves were obtained by applying the simplified Allosteric EC50 shift effect equation (available in Prism5, v. 5.02) derived from the ternary complex interaction model. The enhancement levels recorded were not linearly dependent on the concentration of the enhancer, and the following key parameters values for a (the cooperativity factor) and KB (the equilibrium dissociation constant of TDA) obtained from the model: α=15.7 and KB=259 μM. α>1 is indicative of positive allosteric modulation.

[3] = biological target: T3, OR10J5 olfactory receptor (Homo sapiens, UniProt Q8NHC4, R233W); assay: Single point binary mixture screen (LYRAL® + test compound) for OR10J5 activity enhancement; settings: LYRAL® 4.6 and test compound 300 μM; numbered by decreasing OR10J5 activity (span)
T3 construct: Lucy (cleavable leucine-rich signal peptide) (N); FLAG (N); Rho (first 20 aa of bovine rhodopsin) (N); expressed in transfected cells
T3 sequence (Q8NHC4 1-309 R233W): T1 sequence (Q8NHC4 1-309 R233W)
Source text: The Lucy-Flag-Rho-tagged receptor is co-transfected with the olfactory canonical G-protein Golf and exposed to a binary mixture of a single concentration of a floral muguet compound and a test compound.
A dose response curve showing the activation of OR10J5 in response to the floral muguet compound […], 4-(4-hydroxy-4-methylpentyl)cyclohex-3-ene-1-carbaldehyde or a mixture thereof (sold under the tradename LYRAL®, hereinafter referred to as “LYRAL®”) is shown in FIG. 15. Using a cell-based assay, OR10J5 activity was tested in a HEK293T cell line wherein the endogenous chaperone RTP1 gene has been activated and the odorant receptor chaperone was expressed according to the methods disclosed in International Patent Application Publication No. WO2016/201153 A1. The Flag-Rho-tagged receptor was co-transfected with the olfactory canonical G-protein Golf and was exposed to a binary mixture of a single concentration of LYRAL® and a test compound.
A library of volatile compounds was used to create binary mixtures of each compound with LYRAL® at approximately EC20, a concentration eliciting only approximately 20% of full activity level of OR10J5 by itself. An activation cell-based assay was used for the initial enhancer candidate identification. Single binary mixture-induced receptor activity was detected by measuring the cAMP increase in the cytosol using an HTRF (Homogenous Time-Resolved Fluorescence unit) based kit (CisBio, cAMP dynamic 2 kit, 62AM4PEJ).
800 binary mixtures were created by mixing a LYRAL® stock solution with a stock solution of each test compound to a final concentration 4.6 and 300 μM, respectively. Stock solutions were made of compounds dissolved in pure DMSO. Each mixture was presented to a cell line expressing the OR10J5 olfactory receptor. The final concentration of DMSO in each binary mixture was 0.1%, and had no visible effect on the cells (see FIG. 16).
The resulting activation was then measured and compared to LYRAL® alone (defining the baseline of the enhancement assay). The quality of the HTS process was determined and the window variability and signal reliability were assessed by calculating the Z′ value of each plate. […] These OR10J5 olfactory receptor agonists further confirmed that the dynamic range of the assay window was sufficient (as the responses recorded were well above baseline) and thus likely sensitive enough to detect even low levels of putative enhancement.

Row | Compound | Hit Type [3] | other results
1 | Cc1ccc2c(c1)CC(C)(CO)C2 (racemic) [(+−)-2,5-dimethyl-2-indanmethanol, reference compound] | – | agonist type on OR10J5 (OR10J5 [1]): partial agonist
2 | CC1=CC[C@H](C(C)CC=O)CC1 (some centres unmarked) [3-(4-methylcyclohex-3-en-1-yl)butanal] | – | α (cooperativity factor) (OR10J5 [2]): 7.5; Kb (OR10J5 [2]): 15 µM
3 | CCCCCCC=O [Heptanal] | – | α (cooperativity factor) (OR10J5 [2]): 3.2; Kb (OR10J5 [2]): 51 µM
4 | CCCCCCCC=CC=O [Hit 2-decenal, 2-decenal] | – | α (cooperativity factor) (OR5AN1): 37.3; Kb (OR5AN1; read-out: KB (equilibrium dissociation constant)): 264 µM
5 | CC/C=C\CCCCC=O [Hit 23] | Enhancement | –
6 | CCCCCC=O [Hit 24] | Enhancement | –
7 | C[C@@H](CC=O)CCCC(C)(C)O [Hit 25] | Agonist | –
8 | CC(C)=CCCC1=CCC(C)(C=O)CC1 (centres unmarked) [Hit 26] | Enhancement | –
9 | CC(C)=CCCC(C)C=O (centres unmarked) [Hit 27] | Enhancement | –
10 | O=Cc1ccccc1 [Hit 28] | Enhancement | –
11 | CCCCC/C=C/C=C/C=O [Hit 32] | Enhancement | –
12 | CCCCCCCCC=O [Hit 33] | Enhancement | –
13 | C=CC(C)CCCC(C)(C)O (centres unmarked) [Hit 34] | Agonist | –
14 | CCCCCCC1CCCC(=O)O1 (centres unmarked) [Hit 35] | Enhancement | –
